In patent US20240190849A1, “AMINOPYRIMIDINE COMPOUNDS AND METHODS OF THEIR USE” (TYRA BIOSCIENCES, INC., priority 2021, published 2024):

Legend:
Conditions in all cases: FGFR binding data
FGFR3 (V555M) = target: T1, FGFR3 (V555M) (Homo sapiens, UniProt P22607, V555M); experiment: Kinase binding assay (kinase-tagged T7 phage, affinity beads, qPCR readout), FGFR3 (V555M)
T1 construct: made in house; host or cells: E. coli derived from BL21, infected with T7 phage
Procedure: (§1) Kinase-tagged T7 phage strains were prepared in an E. coli host derived from the BL21 strain. E. coli were grown to log-phase and infected with T7 phage and incubated with shaking at 32° C. until lysis. The lysates were centrifuged and filtered to remove cell debris. Streptavidin-coated magnetic beads were treated with biotinylated small molecule ligands for 30 minutes at room temperature to generate affinity resins for kinase assays. The liganded beads were blocked with excess biotin and washed with blocking buffer SeaBlock (Pierce), 1% BSA, 0.05% Tween 20, 1 mM DTT to remove unbound ligand and to reduce non-specific binding. Binding reactions were assembled by combining kinases, liganded affinity beads, and test compounds in 1× binding buffer (20% SeaBlock, 0.17×PBS, 0.05% Tween 20, 6 mM DTT).
(§2) Test compounds were prepared as 111× stocks in 100% DMSO. Kds were determined using an 11-point 3-fold compound dilution series with three DMSO control points. All compounds for Kd measurements are distributed by acoustic transfer (non-contact dispensing) in 100% DMSO. The compounds were then diluted directly into the assays such that the final concentration of DMSO was 0.9%. All reactions performed in polypropylene 384-well plate. Each was a final volume of 0.02 ml. The assay plates were incubated at room temperature with shaking for 1 hour and the affinity beads were washed with wash buffer (1×PBS, 0.05% Tween 20). The beads were then re-suspended in elution buffer (1×PBS, 0.05% Tween 20, 0.5 μM non-biotinylated affinity ligand) and incubated at room temperature with shaking for 30 minutes. The kinase concentration in the eluates was measured by qPCR.
(§3) Binding constants were calculated with a standard dose-response curve using the Hill equation: […]
(§4) The Hill Slope was set to −1. Curves were fitted using a non-linear least square fit with the Levenberg-Marquardt algorithm.

FGFR3 = target: T2, FGFR3 (Homo sapiens, UniProt P22607); experiment: Kinase binding assay (kinase-tagged T7 phage, affinity beads, qPCR readout), FGFR3
T2 construct: made in house; host or cells: E. coli derived from BL21, infected with T7 phage
T2 sequence (P22607 23-806): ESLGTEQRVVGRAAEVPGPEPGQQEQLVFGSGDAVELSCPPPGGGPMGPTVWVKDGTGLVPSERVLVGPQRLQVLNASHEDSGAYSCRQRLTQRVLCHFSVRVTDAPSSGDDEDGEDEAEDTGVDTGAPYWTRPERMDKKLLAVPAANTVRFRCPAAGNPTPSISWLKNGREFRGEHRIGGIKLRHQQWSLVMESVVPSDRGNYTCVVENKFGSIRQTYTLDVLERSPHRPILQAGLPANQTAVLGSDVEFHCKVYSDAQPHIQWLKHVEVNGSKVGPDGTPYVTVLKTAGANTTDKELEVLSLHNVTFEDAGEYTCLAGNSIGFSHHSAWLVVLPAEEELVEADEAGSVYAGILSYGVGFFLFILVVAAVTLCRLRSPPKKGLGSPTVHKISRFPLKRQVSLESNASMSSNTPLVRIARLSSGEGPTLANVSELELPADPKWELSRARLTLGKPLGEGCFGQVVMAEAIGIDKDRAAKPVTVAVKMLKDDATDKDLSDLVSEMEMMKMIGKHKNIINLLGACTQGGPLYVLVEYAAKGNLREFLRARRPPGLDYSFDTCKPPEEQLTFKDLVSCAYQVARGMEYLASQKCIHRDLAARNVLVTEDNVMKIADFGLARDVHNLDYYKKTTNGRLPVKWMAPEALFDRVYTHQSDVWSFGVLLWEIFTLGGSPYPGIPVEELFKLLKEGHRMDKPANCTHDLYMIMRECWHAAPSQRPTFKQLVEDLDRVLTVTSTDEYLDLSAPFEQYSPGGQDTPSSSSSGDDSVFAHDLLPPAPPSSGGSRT
Procedure: as §1, §2, §3, §4

FGFR1 = target: T3, FGFR1 (Homo sapiens, UniProt P11362); experiment: Kinase binding assay (kinase-tagged T7 phage, affinity beads, qPCR readout), FGFR1
T3 construct: made in house; host or cells: E. coli derived from BL21, infected with T7 phage
T3 sequence (P11362 22-822): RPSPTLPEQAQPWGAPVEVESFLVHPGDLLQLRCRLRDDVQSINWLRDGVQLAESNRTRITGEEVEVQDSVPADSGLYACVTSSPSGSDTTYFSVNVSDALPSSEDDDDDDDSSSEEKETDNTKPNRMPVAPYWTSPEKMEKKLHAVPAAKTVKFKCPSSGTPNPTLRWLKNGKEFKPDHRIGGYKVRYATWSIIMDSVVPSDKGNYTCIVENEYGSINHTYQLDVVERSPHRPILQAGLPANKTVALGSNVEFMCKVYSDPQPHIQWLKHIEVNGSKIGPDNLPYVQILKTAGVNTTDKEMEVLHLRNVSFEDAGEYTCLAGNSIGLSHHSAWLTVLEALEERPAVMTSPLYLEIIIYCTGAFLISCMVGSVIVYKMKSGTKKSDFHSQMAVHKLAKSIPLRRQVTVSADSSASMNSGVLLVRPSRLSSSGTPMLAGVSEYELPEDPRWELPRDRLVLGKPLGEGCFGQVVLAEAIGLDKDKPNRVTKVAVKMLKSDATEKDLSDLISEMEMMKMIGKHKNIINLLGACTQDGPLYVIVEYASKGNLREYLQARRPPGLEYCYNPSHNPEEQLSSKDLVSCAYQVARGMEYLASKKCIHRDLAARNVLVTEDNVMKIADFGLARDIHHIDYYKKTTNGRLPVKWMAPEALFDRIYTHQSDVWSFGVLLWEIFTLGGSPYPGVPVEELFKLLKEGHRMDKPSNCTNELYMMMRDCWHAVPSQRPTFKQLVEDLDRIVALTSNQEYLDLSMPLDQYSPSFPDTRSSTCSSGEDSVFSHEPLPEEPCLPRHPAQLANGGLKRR
Procedure: as §1, §2, §3, §4

FGFR2 = target: T4, FGFR2 (Homo sapiens, UniProt P21802); experiment: Kinase binding assay (kinase-tagged T7 phage, affinity beads, qPCR readout), FGFR2
T4 construct: made in house; host or cells: E. coli derived from BL21, infected with T7 phage
T4 sequence (P21802 22-821): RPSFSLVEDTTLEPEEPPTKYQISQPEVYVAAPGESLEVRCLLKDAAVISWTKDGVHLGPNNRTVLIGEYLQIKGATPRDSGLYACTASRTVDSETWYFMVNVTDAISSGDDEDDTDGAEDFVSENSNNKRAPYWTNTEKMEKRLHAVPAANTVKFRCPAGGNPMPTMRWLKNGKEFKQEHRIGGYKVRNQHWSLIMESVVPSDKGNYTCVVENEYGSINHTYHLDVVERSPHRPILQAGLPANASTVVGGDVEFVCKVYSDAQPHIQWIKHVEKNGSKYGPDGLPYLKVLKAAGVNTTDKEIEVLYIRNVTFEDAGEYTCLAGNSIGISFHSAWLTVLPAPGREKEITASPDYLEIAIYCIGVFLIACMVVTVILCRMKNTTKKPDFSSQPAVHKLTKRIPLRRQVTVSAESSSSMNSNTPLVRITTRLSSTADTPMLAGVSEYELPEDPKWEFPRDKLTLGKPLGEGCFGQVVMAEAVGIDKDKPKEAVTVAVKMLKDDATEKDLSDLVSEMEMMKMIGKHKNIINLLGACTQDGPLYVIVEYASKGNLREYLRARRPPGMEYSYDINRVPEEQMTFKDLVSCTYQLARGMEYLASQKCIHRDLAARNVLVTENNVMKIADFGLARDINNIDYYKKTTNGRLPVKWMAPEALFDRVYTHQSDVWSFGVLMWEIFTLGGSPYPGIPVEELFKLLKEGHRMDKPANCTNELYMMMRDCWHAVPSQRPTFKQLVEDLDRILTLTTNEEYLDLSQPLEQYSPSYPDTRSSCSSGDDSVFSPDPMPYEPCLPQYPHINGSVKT
Procedure: as §1, §2, §3, §4

T1 sequence (P22607 23-806 V555M): as the sequence (P22607 23-806) above, with V533M counted along it

SMILES | Kd (FGFR3 (V555M)) [nM] | Kd (FGFR3) [nM] | Kd (FGFR1) [nM] | Kd (FGFR2) [nM]
C=CC(=O)Nc1ccc2c(-c3nc(Nc4ccc(N(C)CCN(C)C)c(OC)c4)ncc3Cl)cn(C)c2c1 [Example 58, N-[3-[5-chloro-2-[4-[2-(dimethylamino)ethyl-methyl-amino]-3-methoxy-anilino]-pyrimidin-4-yl]-1-methyl-indol-6-yl]prop-2-enamide] | 0.1 to 100 | 0.1 to 100 | 0.1 to 100 | 0.1 to 100
C=CC(=O)Nc1ccc2c(-c3ccnc(Nc4ccn(C5CC5)n4)n3)cn(C)c2c1 [Example 112, N-[3-[2-[(1-cyclopropylpyrazol-3-yl)amino]pyrimidin-4-yl]-1-methyl-indol-6-yl]prop-2-enamide] | 0.1 to 100 | 0.1 to 100 | 100 to 250 | 100 to 250
C#CC(=O)Nc1cnc2c(c1)c(C)cn2-c1nc(Nc2ccnn2C)ncc1C [Example 132, N-[3-methyl-1-[5-methyl-2-[(2-methylpyrazol-3-yl)amino]pyrimidin-4-yl]pyrrolo[2,3-b]pyridin-5-yl]prop-2-ynamide] | 0.1 to 100 | 0.1 to 100 | 0.1 to 100 | 0.1 to 100
C=CC(=O)Nc1ccc2c(ccn2-c2nc(Nc3cn(C)nc3OC)ncc2Cl)c1 [Example 12, N-[1-[5-chloro-2-[(3-methoxy-1-methyl-pyrazol-4-yl)amino]-pyrimidin-4-yl]indol-5-yl]prop-2-enamide] | 0.1 to 100 | 100 to 250 | 250 to 1000 | > 1000
C=CC(=O)Nc1cc(C)c2c(c1)c(C)cn2-c1nc(Nc2ccc(N3CCOCC3)cc2)ncc1Cl [Example 74, N-[1-[5-chloro-2-(4-morpholinoanilino)pyrimidin-4-yl]-3,7-dimethyl-indol-5-yl]prop-2-enamide] | 0.1 to 100 | 0.1 to 100 | 0.1 to 100 | 0.1 to 100
C=CC(=O)Nc1ccc2c(ccn2-c2nc(Nc3cccc(OCCN4CCOCC4)c3)ncc2C)c1C [Example 5, N-[4-methyl-1-[5-methyl-2-[3-(2-morpholinoethoxy)anilino]pyrimidin-4-yl]indol-5-yl]prop-2-enamide] | 0.1 to 100 | 100 to 250 | 250 to 1000 | 100 to 250
C=CS(=O)(=O)Nc1ccc2c(c1)c(C)cn2-c1nc(Nc2ccnn2C)ncc1C [Example 109, N-[3-methyl-1-[5-methyl-2-[(2-methylpyrazol-3-yl)amino]pyrimidin-4-yl]indol-5-yl]ethenesulfonamide] | 0.1 to 100 | 0.1 to 100 | 0.1 to 100 | 0.1 to 100
C=CC(=O)Nc1ccc2c(ccn2-c2nc(Nc3ccc(N4CCOCC4)cc3OCC)ncc2Cl)c1 [Example 11, N-[1-[5-chloro-2-(2-ethoxy-4-morpholino-anilino)pyrimidin-4-yl]indol-5-yl]prop-2-enamide] | > 1000 | > 1000 | > 1000 | > 1000
C=CC(=O)Nc1ccc2c(-c3nc(Nc4ccc(OC)c(OC)c4)ncc3Cl)cn(C)c2c1 [Example 31, N-[3-[5-chloro-2-(3,4-dimethoxyanilino)pyrimidin-4-yl]-1-methyl-indol-6-yl]prop-2-enamide] | 0.1 to 100 | 0.1 to 100 | 0.1 to 100 | 0.1 to 100

Now from value to molecule:

Kd (FGFR3 (V555M)) [nM] | Kd (FGFR3) [nM] | Kd (FGFR1) [nM] | Kd (FGFR2) [nM] | SMILES
0.1 to 100 | 0.1 to 100 | 0.1 to 100 | 0.1 to 100 | C=CC(=O)Nc1ccc2c(c1)c(C)cn2-c1nc(Nc2cnn(C[C@@H](C)O)c2C)ncc1F [Example 216, N-[1-[5-fluoro-2-[[1-[(2R)-2-hydroxypropyl]-5-methyl-pyrazol-4-yl]amino]pyrimidin-4-yl]-3-methyl-indol-5-yl]prop-2-enamide]
0.1 to 100 | 0.1 to 100 | 100 to 250 | 0.1 to 100 | Cc1cn(-c2nc(Nc3cnn(C)c3C)ncc2F)c2ncc(NC(=O)/C=C/CN(C)C)cc12 [Example 199, (E)-4-(dimethylamino)-N-[1-[2-[(1,5-dimethylpyrazol-4-yl)amino]-5-fluoro-pyrimidin-4-yl]-3-methyl-pyrrolo[2,3-b]pyridin-5-yl]but-2-enamide]
> 1000 | 0.1 to 100 | 0.1 to 100 | 0.1 to 100 | C=CC(=O)Nc1ccc2c(c1)c1ccccc1n2-c1nc(Nc2cnn(C)c2)ncc1F [Example 228, N-[9-[5-fluoro-2-[(1-methylpyrazol-4-yl)amino]pyrimidin-4-yl]carbazol-3-yl]prop-2-enamide]
0.1 to 100 | 0.1 to 100 | 0.1 to 100 | 0.1 to 100 | C=CC(=O)Nc1ccc2c(c1)c(C)cn2-c1nc(Nc2cnn(C[C@@H](C)OC)c2)ncc1F [Example 210, N-[1-[5-fluoro-2-[[1-[(2R)-2-methoxypropyl]pyrazol-4-yl]amino]pyrimidin-4-yl]-3-methyl-indol-5-yl]prop-2-enamide]
0.1 to 100 | 0.1 to 100 | 100 to 250 | 0.1 to 100 | C=CC(=O)Nc1ccc2c(c1)c(C)cn2-c1nc(Nc2conc2C)ncc1F [Example 155, N-[1-[5-fluoro-2-[(3-methylisoxazol-4-yl)amino]pyrimidin-4-yl]-3-methyl-indol-5-yl]prop-2-enamide]
100 to 250 | 100 to 250 | 250 to 1000 | 250 to 1000 | C=CC(=O)Nc1ccc2c(c1)c(C)cn2-c1ncnc(Nc2cn(C)nc2C)n1 [Example 220, N-[1-[4-[(1,3-dimethylpyrazol-4-yl)amino]-1,3,5-triazin-2-yl]-3-methyl-indol-5-yl]prop-2-enamide]
250 to 1000 | 100 to 250 | 250 to 1000 | 100 to 250 | Cc1cn(-c2nc(Nc3cnn(C[C@H](C)O)c3)ncc2F)c2ncc(NC(=O)/C=C/CN3CCOCC3)cc12 [Example 198, (E)-N-[1-[5-fluoro-2-[[1-[(2S)-2-hydroxypropyl]pyrazol-4-yl]amino]pyrimidin-4-yl]-3-methyl-pyrrolo[2,3-b]pyridin-5-yl]-4-morpholino-but-2-enamide]
0.1 to 100 | 0.1 to 100 | 0.1 to 100 | 0.1 to 100 | C=CC(=O)Nc1ccc2c(c1)c(C)cn2-c1nc(Nc2cnn(CC(C)OC)c2)ncc1F (centres unmarked) [Example 204, N-[1-[5-fluoro-2-[[1-(2-methoxypropyl)pyrazol-4-yl]amino]pyrimidin-4-yl]-3-methyl-indol-5-yl]prop-2-enamide]
> 1000 | > 1000 | > 1000 | > 1000 | Cc1nn(C)cc1Nc1ncc(F)c(-n2cc(C)c3cc(NC(=O)/C=C/CN4CCOCC4)cnc32)n1 [Example 213, (E)-N-[1-[2-[(1,3-dimethylpyrazol-4-yl)amino]-5-fluoro-pyrimidin-4-yl]-3-methyl-pyrrolo[2,3-b]pyridin-5-yl]-4-morpholino-but-2-enamide]
0.1 to 100 | 0.1 to 100 | 0.1 to 100 | 0.1 to 100 | C=CC(=O)Nc1ccc2c(c1)c(C)cn2-c1nc(Nc2cn(C(C)(C)C#N)nc2C)ncc1F [Example 159, N-[1-[2-[[1-(1-cyano-1-methyl-ethyl)-3-methyl-pyrazol-4-yl]amino]-5-fluoro-pyrimidin-4-yl]-3-methyl-indol-5-yl]prop-2-enamide]
0.1 to 100 | 0.1 to 100 | 100 to 250 | 0.1 to 100 | CC#CC(=O)Nc1ccc2c(c1)c(C)cn2-c1nc(Nc2cnn(CCO)c2)ncc1C [Example 140, N-[1-[2-[[1-(2-hydroxyethyl)pyrazol-4-yl]amino]-5-methyl-pyrimidin-4-yl]-3-methyl-indol-5-yl]but-2-ynamide]
